Source: paper PMC10452110, “Indole-3-Acetamido-Polyamines as Antimicrobial Agents and Antibiotic Adjuvants” (Biomolecules, 2023)

How the values were obtained:
[1] = test system: Escherichia coli (ATCC 25922); assay: Intrinsic antimicrobial activity (MIC) against E. coli; assay type: cell-based; settings: ATCC25922, E. coli ATCC 25922, mean (n = 3), read-out: MIC E. c
Summary of the method: (§1)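 Bacterial susceptibility was determined following previously reported protocols. The antifungal evaluations were carried out at the Community for Open Antimicrobial Drug Discovery (University of Queensland, Australia) under its standard protocols.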

E. coli ATCC 25922 = assay: Enhancement of erythromycin action against E. coli; assay type: cell-based, Escherichia coli; settings: erythromycin at 10.9 µM
Experimental: (§2) Antibiotic enhancer concentrations were determined using previously reported protocols.

P. aeruginosa ATCC 27853 = assay: Enhancement of doxycycline action against P. aeruginosa; assay type: cell-based, Pseudomonas aeruginosa; settings: doxycycline at 4.5 µM
Experimental: as §2

[2] = test system: Candida albicans (ATCC 90028); assay: Intrinsic antifungal activity (MIC) against C. albicans; assay type: cell-based; settings: ATCC90028, C. albicans ATCC 90028, mean (n = 2), read-out: MIC C. a
Summary of the method: (§3)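 Susceptibility testing: bacteria per earlier published methods; fungi per CO-ADD standard protocols (University of Queensland).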

human red blood cells = assay: Hemolytic assay; assay type: cell-based; settings: mean (n = 2)
Experimental: Hemolysis assays were conducted using the protocols previously reported.

[3] = test system: Klebsiella pneumoniae (ATCC 700603); assay: Intrinsic antimicrobial activity (MIC) against K. pneumoniae; assay type: cell-based; settings: ATCC700603, K. pneumoniae ATCC 700603, mean (n = 2), read-out: MIC K. p
Experimental: (§4) The susceptibility of bacterial strains Staphylococcus aureus (ATCC 25923), Escherichia coli (ATCC 25922) and Pseudomonas aeruginosa (ATCC 27853) to antibiotics and compounds was determined using previously reported protocols. Additional antimicrobial evaluation against MRSA (ATCC 43300), Klebsiella pneumoniae (ATCC 700603), Acinetobacter baumannii (ATCC 19606), Candida albicans (ATCC 90028) and Cryptococcus neoformans (ATCC 208821) was undertaken at the Community for Open Antimicrobial Drug Discovery at The University of Queensland (Australia) according to their standard protocols, as reported previously.

[4] = test system: Staphylococcus aureus (ATCC 25923); assay: Intrinsic antimicrobial activity (MIC) against S. aureus; assay type: cell-based; settings: ATCC25923, S. aureus ATCC 25923, mean (n = 3), read-out: MIC S. a
Summary of the method: (§5)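 MIC values come from two sources: bacteria tested by previously reported protocols, and Candida and Cryptococcus tested at the Community for Open Antimicrobial Drug Discovery under standard conditions.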

MRSA (ATCC 43300) = assay: Intrinsic antimicrobial activity (MIC) against MRSA; assay type: cell-based; settings: Staphylococcus aureus, MRSA ATCC 43300; mean (n = 2); read-out: MIC MRSA
Summary of the method: as §1

Cytotoxicity assay = assay type: cell-based; settings: human; HEK293 cells; mean (n = 2); read-out: Cytotoxicity: concentration of compound at 50% cytotoxicity (IC50)
Experimental: Cytotoxicity assays were conducted using the protocols previously reported.

[5] = test system: Acinetobacter baumannii (ATCC 19606); assay: Intrinsic antimicrobial activity (MIC) against A. baumannii; assay type: cell-based; settings: ATCC19606, A. baumannii ATCC 19606, mean (n = 2), read-out: MIC A. b
Experimental: as §4

[6] = test system: Cryptococcus neoformans (ATCC 208821); assay: Intrinsic antifungal activity (MIC) against C. neoformans; assay type: cell-based; settings: ATCC208821, C. neoformans ATCC 208821, mean (n = 2), read-out: MIC C. n
Summary of the method: as §3

[7] = test system: Pseudomonas aeruginosa (ATCC 27853); assay: Intrinsic antimicrobial activity (MIC) against P. aeruginosa; assay type: cell-based; settings: ATCC27853, P. aeruginosa ATCC 27853, mean (n = 3), read-out: MIC P. a
Summary of the method: as §5

## COc1ccc2[nH]cc(CC(=O)NCCCNCCCCCCCCNCCCNC(=O)Cc3c[nH]c4ccc(OC)cc34)c2c1.O=C(O)C(F)(F)F.O=C(O)C(F)(F)F [Compound 16d, N^1,N^8-Bis(3-(2-(5-methoxy-1H-indol-3-yl)acetamido)propyl)octane-1,8-diaminium 2,2,2-trifluoroacetate]
[1]
  MIC: 6.25 µM
E. coli ATCC 25922
  Eryth/E. c: concentration required to restore erythromycin activity (combination MIC): 6.25 µM
P. aeruginosa ATCC 27853
  Dox/P. a: concentration required to restore doxycycline activity (combination MIC): 6.25 µM
[2]
  MIC: > 37 µM
Human red blood cells
  Hemolysis: concentration of compound at 10% hemolytic activity (HC10): >37 µM
[3]
  MIC: > 37 µM
[4]
  MIC: 25 µM
MRSA (ATCC 43300)
  MIC: 2.32 µM
Cytotoxicity assay
  IC50: > 37 µM
[5]
  MIC: > 37 µM
[6]
  MIC: ≤ 0.29 µM
[7]
  MIC: 100 µM

## O=C(Cc1c[nH]c2ccc(Br)cc12)NCCCNCCCCCCCCCCNCCCNC(=O)Cc1c[nH]c2ccc(Br)cc12.O=C(O)C(F)(F)F.O=C(O)C(F)(F)F [Compound 15e, N^1,N^10-Bis(3-(2-(5-bromo-1H-indol-3-yl)acetamido)propyl)decane-1,10-diaminium 2,2,2-trifluoroacetate]
[1]
  MIC: 12.7 µM
E. coli ATCC 25922
  Eryth/E. c: concentration required to restore erythromycin activity (combination MIC): 12.7 µM
P. aeruginosa ATCC 27853
  Dox/P. a fold change (ratio between intrinsic MIC of the test compound and combination MIC): 4 fold
  Dox/P. a: concentration required to restore doxycycline activity (combination MIC): 12.7 µM
[2]
  MIC: ≤ 0.25 µM
Human red blood cells
  Hemolysis: concentration of compound at 10% hemolytic activity (HC10): ≤0.25 µM
[3]
  MIC: > 32 µM
[4]
  MIC: 6.33 µM
MRSA (ATCC 43300)
  MIC: ≤ 0.25 µM
Cytotoxicity assay
  IC50: > 32 µM
[5]
  MIC: > 32 µM
[6]
  MIC: ≤ 0.25 µM
[7]
  MIC: 50.7 µM

## Cc1ccc2[nH]cc(CC(=O)NCCCNCCCCCCCCCCNCCCNC(=O)Cc3c[nH]c4ccc(C)cc34)c2c1.O=C(O)C(F)(F)F.O=C(O)C(F)(F)F [Compound 17e, N^1,N^10-Bis(3-(2-(5-methyl-1H-indol-3-yl)acetamido)propyl)decane-1,10-diaminium 2,2,2-trifluoroacetate]
[1]
  MIC: 58.3 µM
E. coli ATCC 25922
  Eryth/E. c: concentration required to restore erythromycin activity (combination MIC): 29.2 µM
P. aeruginosa ATCC 27853
  Dox/P. a fold change (ratio between intrinsic MIC of the test compound and combination MIC): 1 fold
  Dox/P. a: concentration required to restore doxycycline activity (combination MIC): 233 µM
[2]
  MIC: ≤ 0.29 µM
Human red blood cells
  Hemolysis: concentration of compound at 10% hemolytic activity (HC10): 3.19 µM
[3]
  MIC: > 37 µM
[4]
  MIC: 7.29 µM
MRSA (ATCC 43300)
  MIC: ≤ 0.29 µM
Cytotoxicity assay
  IC50: > 37 µM
[5]
  MIC: 37 µM
[6]
  MIC: ≤ 0.29 µM
[7]
  MIC: 233 µM

## O=C(Cc1c[nH]c2ccccc12)NCCCNCCCCCCCNCCCNC(=O)Cc1c[nH]c2ccccc12.O=C(O)C(F)(F)F.O=C(O)C(F)(F)F [Compound 14c, N^1,N^7-Bis(3-(2-(1H-indol-3-yl)acetamido)propyl)heptane-1,7-diaminium 2,2,2-trifluoroacetate]
[1]
  MIC: > 254 µM
E. coli ATCC 25922
  Eryth/E. c: concentration required to restore erythromycin activity (combination MIC): > 254 µM
P. aeruginosa ATCC 27853
  Dox/P. a fold change (ratio between intrinsic MIC of the test compound and combination MIC): 4 fold
  Dox/P. a: concentration required to restore doxycycline activity (combination MIC): 63.5 µM
[2]
  MIC: > 41 µM
Human red blood cells
  Hemolysis: concentration of compound at 10% hemolytic activity (HC10): 0.72 µM
[3]
  MIC: > 41 µM
[4]
  MIC: 15.9 µM
MRSA (ATCC 43300)
  MIC: ≤ 0.32 µM
Cytotoxicity assay
  IC50: > 41 µM
[5]
  MIC: > 41 µM
[6]
  MIC: ≤ 0.32 µM
[7]
  MIC: > 254 µM

## O=C(Cc1c[nH]c2c(F)cccc12)NCCCNCCCCCCNCCCNC(=O)Cc1c[nH]c2c(F)cccc12.O=C(O)C(F)(F)F.O=C(O)C(F)(F)F [Compound 18b, N^1,N^6-Bis(3-(2-(7-fluoro-1H-indol-3-yl)acetamido)propyl)hexane-1,6-diaminium 2,2,2-trifluoroacetate]
[1]
  MIC: > 247 µM
E. coli ATCC 25922
  Eryth/E. c: concentration required to restore erythromycin activity (combination MIC): > 247 µM
P. aeruginosa ATCC 27853
  Dox/P. a fold change (ratio between intrinsic MIC of the test compound and combination MIC): > 1 fold
  Dox/P. a: concentration required to restore doxycycline activity (combination MIC): 247 µM
[2]
  MIC: 39.6 µM
Human red blood cells
  Hemolysis: concentration of compound at 10% hemolytic activity (HC10): >40 µM
[3]
  MIC: > 40 µM
[4]
  MIC: 124 µM
MRSA (ATCC 43300)
  MIC: < 0.2 µM
Cytotoxicity assay
  IC50: > 40 µM
[5]
  MIC: > 40 µM
[6]
  MIC: < 0.2 µM
[7]
  MIC: > 247 µM

## O=C(Cc1c[nH]c2ccccc12)NCCCNCCCCCCCCNCCCNC(=O)Cc1c[nH]c2ccccc12.O=C(O)C(F)(F)F.O=C(O)C(F)(F)F [Compound 14d, N^1,N^8-Bis(3-(2-(1H-indol-3-yl)acetamido)propyl)octane-1,8-diaminium 2,2,2-trifluoroacetate]
[1]
  MIC: 62.4 µM
E. coli ATCC 25922
  Eryth/E. c: concentration required to restore erythromycin activity (combination MIC): 250 µM
P. aeruginosa ATCC 27853
  Dox/P. a fold change (ratio between intrinsic MIC of the test compound and combination MIC): > 1 fold
  Dox/P. a: concentration required to restore doxycycline activity (combination MIC): 250 µM
[2]
  MIC: > 40 µM
Human red blood cells
  Hemolysis: concentration of compound at 10% hemolytic activity (HC10): 15.8 µM
[3]
  MIC: > 40 µM
[4]
  MIC: 31.2 µM
MRSA (ATCC 43300)
  MIC: ≤ 0.31 µM
Cytotoxicity assay
  IC50: > 40 µM
[5]
  MIC: > 40 µM
[6]
  MIC: ≤ 0.31 µM
[7]
  MIC: > 250 µM

## Cc1ccc2[nH]cc(CC(=O)NCCCNCCCCCCCNCCCNC(=O)Cc3c[nH]c4ccc(C)cc34)c2c1.O=C(O)C(F)(F)F.O=C(O)C(F)(F)F [Compound 17c, N^1,N^7-Bis(3-(2-(5-methyl-1H-indol-3-yl)acetamido)propyl)heptane-1,7-diaminium 2,2,2-trifluoroacetate]
[1]
  MIC: 245 µM
E. coli ATCC 25922
  Eryth/E. c: concentration required to restore erythromycin activity (combination MIC): 61.4 µM
P. aeruginosa ATCC 27853
  Dox/P. a fold change (ratio between intrinsic MIC of the test compound and combination MIC): > 2 fold
  Dox/P. a: concentration required to restore doxycycline activity (combination MIC): 123 µM
[2]
  MIC: 39.3 µM
Human red blood cells
  Hemolysis: concentration of compound at 10% hemolytic activity (HC10): >39 µM
[3]
  MIC: > 39 µM
[4]
  MIC: 61.4 µM
MRSA (ATCC 43300)
  MIC: < 0.2 µM
Cytotoxicity assay
  IC50: > 39 µM
[5]
  MIC: > 39 µM
[6]
  MIC: < 0.2 µM
[7]
  MIC: > 245 µM

## COc1ccc2[nH]cc(CC(=O)NCCCNCCCCCCCCCCCCNCCCNC(=O)Cc3c[nH]c4ccc(OC)cc34)c2c1.O=C(O)C(F)(F)F.O=C(O)C(F)(F)F [Compound 16f, N^1,N^12-Bis(3-(2-(5-methoxy-1H-indol-3-yl)acetamido)propyl)dodecane-1,12-diaminium 2,2,2-trifluoroacetate]
[1]
  MIC: 13.6 µM
E. coli ATCC 25922
  Eryth/E. c: concentration required to restore erythromycin activity (combination MIC): 27.3 µM
P. aeruginosa ATCC 27853
  Dox/P. a fold change (ratio between intrinsic MIC of the test compound and combination MIC): 8 fold
  Dox/P. a: concentration required to restore doxycycline activity (combination MIC): 13.6 µM
[2]
  MIC: 35 µM
Human red blood cells
  Hemolysis: concentration of compound at 10% hemolytic activity (HC10): >35 µM
[3]
  MIC: > 35 µM
[4]
  MIC: 6.82 µM
MRSA (ATCC 43300)
  MIC: ≤ 0.27 µM
Cytotoxicity assay
  IC50: > 35 µM
[5]
  MIC: > 35 µM
[6]
  MIC: ≤ 0.27 µM
[7]
  MIC: 109 µM
